Reference: paper PMC5580309, “Molecular-scale features that govern the effects of O-glycosylation on a carbohydrate-binding module” (Chemical Science, 2015)
Bridge positions count the residues as written; N and C are the ends. Peptide text beside a SMILES is read from it. * marks the point of attachment. X2 = OC[C@H]1O[C@H](O[C@H]2[C@@H](O)[C@H](O)[C@@H](CO)O[C@@H]2*)[C@@H](O)[C@@H](O)[C@@H]1O; αMan = OC[C@H]1O[C@H](*)[C@@H](O)[C@@H](O)[C@@H]1O

Target: T1, thermolysin (Bacillus thermoproteolyticus, UniProt P00800)
T1 sequence (P00800 233-548): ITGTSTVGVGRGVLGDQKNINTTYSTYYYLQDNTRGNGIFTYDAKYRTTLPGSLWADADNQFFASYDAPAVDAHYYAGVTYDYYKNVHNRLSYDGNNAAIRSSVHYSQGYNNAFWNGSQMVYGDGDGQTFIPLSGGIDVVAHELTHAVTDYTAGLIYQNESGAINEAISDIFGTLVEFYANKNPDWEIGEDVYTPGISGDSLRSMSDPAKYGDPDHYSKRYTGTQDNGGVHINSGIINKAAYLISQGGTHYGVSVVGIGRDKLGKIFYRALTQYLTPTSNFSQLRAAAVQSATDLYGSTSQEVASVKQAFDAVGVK
Test: Proteolytic stability: half-life to thermolysin degradation
Format: in vitro ADME
Conditions: for half-life: thermolysin (isolated protease), thermolysin degradation, mean of three trials ± SD, procedures as described previously (ESI ref 18); for Change in Half-Life to Thermolysin Degradation: glyco-variant minus its corresponding unglycosylated CBM (e.g. 2-1), *** not used in the correlation plot
Method: All error bars reported are standard deviations of data achieved from three separate trials.
cellulose that were determined in accordance with our procedures as described previously 18.
The results are presented as mean of three trials ± SD. *Denotes an averaged value of four trials

| Structure (SMILES) | half-life [min] | Change in Half-Life to Thermolysin Degradation [min] |
| --- | --- | --- |
| CC[C@H](C)[C@@H]1NC(=O)CNC(=O)CNC(=O)[C@@H](NC(=O)[C@H](CCC(N)=O)NC(=O)CNC(=O)[C@H](Cc2ccc(O)cc2)NC(=O)[C@H](Cc2c[nH]cn2)NC(=O)[C@H](CO)NC(=O)[C@H](CCC(N)=O)NC(=O)[C@@H](N)[C@@H](C)O)CSSC[C@@H]2NC(=O)[C@H]([C@@H](C)O)NC(=O)[C@H]([C@@H](C)O)NC(=O)CNC(=O)[C@H](CO)NC(=O)[C@H](C)NC(=O)[C@H](CSSC[C@@H](C(=O)N[C@@H](CC(C)C)C(=O)O)NC(=O)[C@H](CCC(N)=O)NC(=O)[C@H](CO)NC(=O)[C@H](Cc3ccc(O)cc3)NC(=O)[C@H](Cc3ccc(O)cc3)NC(=O)[C@@H]3CCCN3C(=O)[C@H](CC(N)=O)NC(=O)[C@H](CC(C)C)NC(=O)[C@H](C(C)C)NC(=O)[C@H](CCC(N)=O)NC2=O)NC(=O)[C@H](C(C)C)NC(=O)[C@H]([C@@H](C)O)NC(=O)[C@@H]2CCCN2C(=O)CNC(=O)[C@H](CO)NC(=O)[C@H](Cc2ccc(O)cc2)NC(=O)CNC1=O [CBM variant 1] (H-TQSHYGQCGGIGYSGPTVCASGTTCQVLNPYYSQCL-OH; disulfide 8-25, 19-35) | 13.8 ± 1.2 | – |
| CC[C@H](C)[C@@H]1NC(=O)CNC(=O)CNC(=O)[C@@H](NC(=O)[C@H](CCC(N)=O)NC(=O)CNC(=O)[C@H](Cc2ccc(O)cc2)NC(=O)[C@H](Cc2c[nH]cn2)NC(=O)[C@H](CO[C@H]2O[C@H](CO)[C@@H](O)[C@H](O)[C@@H]2O)NC(=O)[C@H](CCC(N)=O)NC(=O)[C@@H](N)[C@@H](C)O)CSSC[C@@H]2NC(=O)[C@H]([C@@H](C)O)NC(=O)[C@H]([C@@H](C)O)NC(=O)CNC(=O)[C@H](CO)NC(=O)[C@H](C)NC(=O)[C@H](CSSC[C@@H](C(=O)N[C@@H](CC(C)C)C(=O)O)NC(=O)[C@H](CCC(N)=O)NC(=O)[C@H](CO)NC(=O)[C@H](Cc3ccc(O)cc3)NC(=O)[C@H](Cc3ccc(O)cc3)NC(=O)[C@@H]3CCCN3C(=O)[C@H](CC(N)=O)NC(=O)[C@H](CC(C)C)NC(=O)[C@H](C(C)C)NC(=O)[C@H](CCC(N)=O)NC2=O)NC(=O)[C@H](C(C)C)NC(=O)[C@H]([C@@H](C)O)NC(=O)[C@@H]2CCCN2C(=O)CNC(=O)[C@H](CO)NC(=O)[C@H](Cc2ccc(O)cc2)NC(=O)CNC1=O [CBM variant 2] (H-TQS(αMan)HYGQCGGIGYSGPTVCASGTTCQVLNPYYSQCL-OH; disulfide 8-25, 19-35) | 65.4 ± 0.6 | 51.6 |
| CC[C@H](C)[C@@H]1NC(=O)CNC(=O)CNC(=O)[C@@H](NC(=O)[C@H](CCC(N)=O)NC(=O)CNC(=O)[C@H](Cc2ccc(O)cc2)NC(=O)[C@H](Cc2c[nH]cn2)NC(=O)[C@H](CO[C@H]2O[C@H](CO)[C@@H](O)[C@H](O)[C@@H]2O[C@H]2O[C@H](CO)[C@@H](O)[C@H](O)[C@@H]2O)NC(=O)[C@H](CCC(N)=O)NC(=O)[C@@H](N)[C@@H](C)O)CSSC[C@@H]2NC(=O)[C@H]([C@@H](C)O)NC(=O)[C@H]([C@@H](C)O)NC(=O)CNC(=O)[C@H](CO)NC(=O)[C@H](C)NC(=O)[C@H](CSSC[C@@H](C(=O)N[C@@H](CC(C)C)C(=O)O)NC(=O)[C@H](CCC(N)=O)NC(=O)[C@H](CO)NC(=O)[C@H](Cc3ccc(O)cc3)NC(=O)[C@H](Cc3ccc(O)cc3)NC(=O)[C@@H]3CCCN3C(=O)[C@H](CC(N)=O)NC(=O)[C@H](CC(C)C)NC(=O)[C@H](C(C)C)NC(=O)[C@H](CCC(N)=O)NC2=O)NC(=O)[C@H](C(C)C)NC(=O)[C@H]([C@@H](C)O)NC(=O)[C@@H]2CCCN2C(=O)CNC(=O)[C@H](CO)NC(=O)[C@H](Cc2ccc(O)cc2)NC(=O)CNC1=O [CBM variant 3] (H-TQS(X2)HYGQCGGIGYSGPTVCASGTTCQVLNPYYSQCL-OH; disulfide 8-25, 19-35) | 128 ± 3.6 | 114 |
| CC[C@H](C)[C@@H]1NC(=O)CNC(=O)CNC(=O)[C@@H](NC(=O)[C@H](CCC(N)=O)NC(=O)CNC(=O)[C@H](Cc2ccc(O)cc2)NC(=O)[C@H](Cc2c[nH]cn2)NC(=O)[C@H](CO)NC(=O)[C@H](CCC(N)=O)NC(=O)[C@H](C)N)CSSC[C@@H]2NC(=O)[C@H]([C@@H](C)O)NC(=O)[C@H]([C@@H](C)O)NC(=O)CNC(=O)[C@H](CO)NC(=O)[C@H](C)NC(=O)[C@H](CSSC[C@@H](C(=O)N[C@@H](CC(C)C)C(=O)O)NC(=O)[C@H](CCC(N)=O)NC(=O)[C@H](CO)NC(=O)[C@H](Cc3ccc(O)cc3)NC(=O)[C@H](Cc3ccc(O)cc3)NC(=O)[C@@H]3CCCN3C(=O)[C@H](CC(N)=O)NC(=O)[C@H](CC(C)C)NC(=O)[C@H](C(C)C)NC(=O)[C@H](CCC(N)=O)NC2=O)NC(=O)[C@H](C(C)C)NC(=O)[C@H]([C@@H](C)O)NC(=O)[C@@H]2CCCN2C(=O)CNC(=O)[C@H](CO)NC(=O)[C@H](Cc2ccc(O)cc2)NC(=O)CNC1=O [CBM variant 4] (H-AQSHYGQCGGIGYSGPTVCASGTTCQVLNPYYSQCL-OH; disulfide 8-25, 19-35) | 9.6 ± 1.2 | – |
| CC[C@H](C)[C@@H]1NC(=O)CNC(=O)CNC(=O)[C@@H](NC(=O)[C@H](CCC(N)=O)NC(=O)CNC(=O)[C@H](Cc2ccc(O)cc2)NC(=O)[C@H](Cc2c[nH]cn2)NC(=O)[C@H](CO[C@H]2O[C@H](CO)[C@@H](O)[C@H](O)[C@@H]2O)NC(=O)[C@H](CCC(N)=O)NC(=O)[C@H](C)N)CSSC[C@@H]2NC(=O)[C@H]([C@@H](C)O)NC(=O)[C@H]([C@@H](C)O)NC(=O)CNC(=O)[C@H](CO)NC(=O)[C@H](C)NC(=O)[C@H](CSSC[C@@H](C(=O)N[C@@H](CC(C)C)C(=O)O)NC(=O)[C@H](CCC(N)=O)NC(=O)[C@H](CO)NC(=O)[C@H](Cc3ccc(O)cc3)NC(=O)[C@H](Cc3ccc(O)cc3)NC(=O)[C@@H]3CCCN3C(=O)[C@H](CC(N)=O)NC(=O)[C@H](CC(C)C)NC(=O)[C@H](C(C)C)NC(=O)[C@H](CCC(N)=O)NC2=O)NC(=O)[C@H](C(C)C)NC(=O)[C@H]([C@@H](C)O)NC(=O)[C@@H]2CCCN2C(=O)CNC(=O)[C@H](CO)NC(=O)[C@H](Cc2ccc(O)cc2)NC(=O)CNC1=O [CBM variant 5] (H-AQS(αMan)HYGQCGGIGYSGPTVCASGTTCQVLNPYYSQCL-OH; disulfide 8-25, 19-35) | 44.4 ± 7.2 | 34.8 |
| CC[C@H](C)[C@@H]1NC(=O)CNC(=O)CNC(=O)[C@@H](NC(=O)[C@H](CCC(N)=O)NC(=O)CNC(=O)[C@H](Cc2ccc(O)cc2)NC(=O)[C@H](Cc2c[nH]cn2)NC(=O)[C@H](CO)NC(=O)[C@H](C)NC(=O)[C@@H](N)[C@@H](C)O)CSSC[C@@H]2NC(=O)[C@H]([C@@H](C)O)NC(=O)[C@H]([C@@H](C)O)NC(=O)CNC(=O)[C@H](CO)NC(=O)[C@H](C)NC(=O)[C@H](CSSC[C@@H](C(=O)N[C@@H](CC(C)C)C(=O)O)NC(=O)[C@H](CCC(N)=O)NC(=O)[C@H](CO)NC(=O)[C@H](Cc3ccc(O)cc3)NC(=O)[C@H](Cc3ccc(O)cc3)NC(=O)[C@@H]3CCCN3C(=O)[C@H](CC(N)=O)NC(=O)[C@H](CC(C)C)NC(=O)[C@H](C(C)C)NC(=O)[C@H](CCC(N)=O)NC2=O)NC(=O)[C@H](C(C)C)NC(=O)[C@H]([C@@H](C)O)NC(=O)[C@@H]2CCCN2C(=O)CNC(=O)[C@H](CO)NC(=O)[C@H](Cc2ccc(O)cc2)NC(=O)CNC1=O [CBM variant 6] (H-TASHYGQCGGIGYSGPTVCASGTTCQVLNPYYSQCL-OH; disulfide 8-25, 19-35) | 9.6 ± 2.4 | – |
| CC[C@H](C)[C@@H]1NC(=O)CNC(=O)CNC(=O)[C@@H](NC(=O)[C@H](CCC(N)=O)NC(=O)CNC(=O)[C@H](Cc2ccc(O)cc2)NC(=O)[C@H](Cc2c[nH]cn2)NC(=O)[C@H](CO[C@H]2O[C@H](CO)[C@@H](O)[C@H](O)[C@@H]2O)NC(=O)[C@H](C)NC(=O)[C@@H](N)[C@@H](C)O)CSSC[C@@H]2NC(=O)[C@H]([C@@H](C)O)NC(=O)[C@H]([C@@H](C)O)NC(=O)CNC(=O)[C@H](CO)NC(=O)[C@H](C)NC(=O)[C@H](CSSC[C@@H](C(=O)N[C@@H](CC(C)C)C(=O)O)NC(=O)[C@H](CCC(N)=O)NC(=O)[C@H](CO)NC(=O)[C@H](Cc3ccc(O)cc3)NC(=O)[C@H](Cc3ccc(O)cc3)NC(=O)[C@@H]3CCCN3C(=O)[C@H](CC(N)=O)NC(=O)[C@H](CC(C)C)NC(=O)[C@H](C(C)C)NC(=O)[C@H](CCC(N)=O)NC2=O)NC(=O)[C@H](C(C)C)NC(=O)[C@H]([C@@H](C)O)NC(=O)[C@@H]2CCCN2C(=O)CNC(=O)[C@H](CO)NC(=O)[C@H](Cc2ccc(O)cc2)NC(=O)CNC1=O [CBM variant 7] (H-TAS(αMan)HYGQCGGIGYSGPTVCASGTTCQVLNPYYSQCL-OH; disulfide 8-25, 19-35) | 16.2 ± 3 | 6.6 |
| CC[C@H](C)[C@@H]1NC(=O)CNC(=O)CNC(=O)[C@@H](NC(=O)[C@H](CCC(N)=O)NC(=O)CNC(=O)[C@H](Cc2ccc(O)cc2)NC(=O)[C@H](C)NC(=O)[C@H](CO)NC(=O)[C@H](CCC(N)=O)NC(=O)[C@@H](N)[C@@H](C)O)CSSC[C@@H]2NC(=O)[C@H]([C@@H](C)O)NC(=O)[C@H]([C@@H](C)O)NC(=O)CNC(=O)[C@H](CO)NC(=O)[C@H](C)NC(=O)[C@H](CSSC[C@@H](C(=O)N[C@@H](CC(C)C)C(=O)O)NC(=O)[C@H](CCC(N)=O)NC(=O)[C@H](CO)NC(=O)[C@H](Cc3ccc(O)cc3)NC(=O)[C@H](Cc3ccc(O)cc3)NC(=O)[C@@H]3CCCN3C(=O)[C@H](CC(N)=O)NC(=O)[C@H](CC(C)C)NC(=O)[C@H](C(C)C)NC(=O)[C@H](CCC(N)=O)NC2=O)NC(=O)[C@H](C(C)C)NC(=O)[C@H]([C@@H](C)O)NC(=O)[C@@H]2CCCN2C(=O)CNC(=O)[C@H](CO)NC(=O)[C@H](Cc2ccc(O)cc2)NC(=O)CNC1=O [CBM variant 8] (H-TQSAYGQCGGIGYSGPTVCASGTTCQVLNPYYSQCL-OH; disulfide 8-25, 19-35) | 13.2 ± 3.6 | – |
